{"source": "paper PMC4577959", "about": "(Journal of the American Chemical Society, 2015)", "key": {"[1]": {"target": "N2B peptide (NHR2-binding motif of E-proteins) (Homo sapiens, UniProt Q99081)", "conditions": "ratio of Kd values, FP assay with flu-N2B"}, "[2]": {"target": "fluorescein-labeled N2B peptide (NHR2-binding motif of E-proteins)", "assay": "fluorescence polarisation"}}, "data": [{"molecule": "CC[C@H](C)[C@@H]1NC(=O)[C@H](CO)NC(=O)[C@H](CCCNC(=N)N)NC(=O)[C@H](Cc2c[nH]c3ccccc23)NC(=O)[C@@H](NC(=O)[C@H](CCC(=O)O)NC(C)=O)CSSC[C@@H](C(=O)N[C@@H](CCCNC(=N)N)C(N)=O)NC(=O)[C@H](CC(C)C)NC(=O)[C@H](CCC(=O)O)NC(=O)[C@@H](NC(=O)[C@H](CC(C)C)NC(=O)[C@H](Cc2c[nH]cn2)NC(=O)[C@H](Cc2c[nH]c3ccccc23)NC(=O)[C@H](CC(C)C)NC(=O)[C@H](CCC(=O)O)NC(C)=O)CCCCn2cc(nn2)COCc2cn(nn2)CCCC[C@@H](C(N)=O)NC(=O)[C@H](CC(C)C)NC(=O)[C@H](C(C)C)NC(=O)[C@H](CCCNC(=N)N)NC1=O", "note": "[CHD^DS-NHR2-3]", "values": [{"measurement": "enhanced affinity versus the native NHR2 coiled coil", "setting": "[1]", "result": 5, "unit": "fold"}]}, {"molecule": "GST-NHR2(482–551), native Nervy homology two (NHR2) coiled coil domain of AML1-ETO (domain or fragment)", "values": [{"measurement": "Kd", "setting": "[2]", "result": 356, "unit": "µM"}]}]}
